Results from publication PMC3969223, “Characterization of WZ4003 and HTH-01-015 as selective inhibitors of the LKB1-tumour-suppressor-activated NUAK kinases” (Biochemical Journal, 2013).

How the values were obtained:
Assay type in all cases: biochemical
[1] = system: panel of 140 protein kinases; assay: Protein kinase profiling, whole panel; settings: 1 μM, panel of 140 kinases
Protocol: (§1) Kinase inhibitor specificity profiling assays were carried out at The International Centre for Protein Kinase Profiling (http://www.kinase-screen.mrc.ac.uk/) against a panel of 140 protein kinases as described previously. Results are presented as a percentage of kinase activity in DMSO control reactions. Protein kinases were assayed in vitro with 0.1 or 1 μM of the inhibitors and the results are presented as an average of triplicate reactions±S.D. or in the form of comparative histograms.

[2] = target: Aurora B (Homo sapiens, UniProt Q96GD4); assay: Kinase profiling; settings: for Aurora B activity, percentage of DMSO control: 0.1 or 1 μM inhibitor, mean of triplicate; for Inhibition of Aurora B in profiling (in words; Aurora isoforms): 1 μM
Aurora B, sequence (Q96GD4 whole entry, canonical isoform): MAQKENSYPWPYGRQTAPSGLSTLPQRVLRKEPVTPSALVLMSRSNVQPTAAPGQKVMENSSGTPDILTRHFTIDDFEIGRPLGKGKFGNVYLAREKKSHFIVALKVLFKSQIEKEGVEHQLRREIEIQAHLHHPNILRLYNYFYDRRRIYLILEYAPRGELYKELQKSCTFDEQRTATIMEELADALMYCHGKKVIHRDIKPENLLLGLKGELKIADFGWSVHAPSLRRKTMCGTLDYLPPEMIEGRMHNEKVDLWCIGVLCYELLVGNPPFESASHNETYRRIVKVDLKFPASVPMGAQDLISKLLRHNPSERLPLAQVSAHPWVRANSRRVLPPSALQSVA
Protocol: as §1

[3] = target: T1, Aurora A (Homo sapiens, UniProt O14965); assay: Kinase profiling; settings: for Inhibition of Aurora A in profiling (in words; Aurora isoforms): 1 μM
T1 sequence (O14965 1-403): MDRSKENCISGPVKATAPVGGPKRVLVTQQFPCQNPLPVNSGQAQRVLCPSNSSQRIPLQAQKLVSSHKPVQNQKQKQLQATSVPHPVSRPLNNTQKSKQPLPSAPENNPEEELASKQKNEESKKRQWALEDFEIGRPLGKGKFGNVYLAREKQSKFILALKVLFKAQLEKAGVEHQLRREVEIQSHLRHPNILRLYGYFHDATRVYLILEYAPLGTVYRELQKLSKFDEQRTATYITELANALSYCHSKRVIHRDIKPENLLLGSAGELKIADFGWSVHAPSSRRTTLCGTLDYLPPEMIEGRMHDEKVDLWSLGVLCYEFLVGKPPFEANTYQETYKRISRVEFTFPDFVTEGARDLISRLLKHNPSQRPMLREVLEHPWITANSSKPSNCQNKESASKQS
Protocol: as §1

[4] = target: JAK2 (Homo sapiens, UniProt O60674); assay: Kinase profiling; settings: for JAK2 activity, percentage of DMSO control: 0.1 or 1 μM inhibitor, mean of triplicate; for Inhibition of JAK2 in profiling (in words): 1 μM
JAK2, sequence (O60674 whole entry): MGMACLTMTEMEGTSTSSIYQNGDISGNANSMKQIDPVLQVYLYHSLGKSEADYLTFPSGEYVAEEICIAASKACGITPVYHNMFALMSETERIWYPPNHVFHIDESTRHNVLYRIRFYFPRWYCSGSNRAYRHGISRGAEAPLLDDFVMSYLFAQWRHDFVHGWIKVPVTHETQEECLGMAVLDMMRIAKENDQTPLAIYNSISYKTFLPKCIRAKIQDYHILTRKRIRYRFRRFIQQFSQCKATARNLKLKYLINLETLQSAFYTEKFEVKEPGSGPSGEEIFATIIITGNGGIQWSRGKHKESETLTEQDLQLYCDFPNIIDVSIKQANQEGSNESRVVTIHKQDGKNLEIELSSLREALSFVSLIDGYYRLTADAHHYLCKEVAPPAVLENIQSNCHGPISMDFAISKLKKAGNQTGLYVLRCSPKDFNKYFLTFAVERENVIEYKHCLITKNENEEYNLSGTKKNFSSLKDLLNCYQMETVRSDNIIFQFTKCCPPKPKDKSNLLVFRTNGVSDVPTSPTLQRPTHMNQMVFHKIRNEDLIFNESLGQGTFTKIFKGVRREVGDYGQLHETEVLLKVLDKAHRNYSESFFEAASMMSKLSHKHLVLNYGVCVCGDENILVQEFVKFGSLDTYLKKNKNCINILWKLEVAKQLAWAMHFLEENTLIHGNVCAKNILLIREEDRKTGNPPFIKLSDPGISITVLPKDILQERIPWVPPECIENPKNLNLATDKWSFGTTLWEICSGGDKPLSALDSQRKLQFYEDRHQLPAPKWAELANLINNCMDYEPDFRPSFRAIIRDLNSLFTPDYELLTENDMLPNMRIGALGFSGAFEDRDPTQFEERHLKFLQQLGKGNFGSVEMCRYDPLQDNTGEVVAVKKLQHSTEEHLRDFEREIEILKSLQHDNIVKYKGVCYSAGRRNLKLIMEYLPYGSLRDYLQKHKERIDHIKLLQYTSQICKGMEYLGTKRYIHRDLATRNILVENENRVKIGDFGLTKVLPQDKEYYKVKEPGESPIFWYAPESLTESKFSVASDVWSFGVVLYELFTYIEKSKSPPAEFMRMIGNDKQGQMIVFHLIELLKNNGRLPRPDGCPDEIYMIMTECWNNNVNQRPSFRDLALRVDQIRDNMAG
Protocol: as §1

[5] = target: T2, BRSK1 (Homo sapiens, UniProt Q8TDC3); assay: Kinase profiling; settings: for BRSK1 activity, percentage of DMSO control: 0.1 or 1 μM inhibitor, mean of triplicate
T2 sequence (Q8TDC3 1-778): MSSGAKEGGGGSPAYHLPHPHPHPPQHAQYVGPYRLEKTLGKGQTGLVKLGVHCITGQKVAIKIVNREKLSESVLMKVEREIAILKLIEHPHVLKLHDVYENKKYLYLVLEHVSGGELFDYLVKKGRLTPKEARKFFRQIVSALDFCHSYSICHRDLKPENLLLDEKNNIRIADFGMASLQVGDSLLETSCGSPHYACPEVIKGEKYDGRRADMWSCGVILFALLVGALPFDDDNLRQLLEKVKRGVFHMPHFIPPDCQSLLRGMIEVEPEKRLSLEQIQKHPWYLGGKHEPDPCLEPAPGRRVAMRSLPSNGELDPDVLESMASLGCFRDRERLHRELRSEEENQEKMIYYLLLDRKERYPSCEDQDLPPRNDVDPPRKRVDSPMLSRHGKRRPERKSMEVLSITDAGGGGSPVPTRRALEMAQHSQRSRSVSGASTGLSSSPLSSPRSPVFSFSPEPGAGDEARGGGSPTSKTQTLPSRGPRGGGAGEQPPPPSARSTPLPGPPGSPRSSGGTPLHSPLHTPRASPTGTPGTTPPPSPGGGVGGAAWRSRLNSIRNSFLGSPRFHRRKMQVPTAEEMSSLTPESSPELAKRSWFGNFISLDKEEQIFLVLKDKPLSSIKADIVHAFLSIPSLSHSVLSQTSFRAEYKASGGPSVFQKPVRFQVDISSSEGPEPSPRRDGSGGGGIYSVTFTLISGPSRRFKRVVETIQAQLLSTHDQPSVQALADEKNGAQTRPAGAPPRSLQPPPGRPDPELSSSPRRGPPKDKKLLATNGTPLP
Protocol: as §1

[6] = target: ABL (Homo sapiens, UniProt P00519); assay: Kinase profiling; settings: for ABL activity, percentage of DMSO control: 0.1 or 1 μM inhibitor, mean of triplicate; for Inhibition of ABL in profiling (in words): 1 μM
ABL, sequence (P00519 whole entry): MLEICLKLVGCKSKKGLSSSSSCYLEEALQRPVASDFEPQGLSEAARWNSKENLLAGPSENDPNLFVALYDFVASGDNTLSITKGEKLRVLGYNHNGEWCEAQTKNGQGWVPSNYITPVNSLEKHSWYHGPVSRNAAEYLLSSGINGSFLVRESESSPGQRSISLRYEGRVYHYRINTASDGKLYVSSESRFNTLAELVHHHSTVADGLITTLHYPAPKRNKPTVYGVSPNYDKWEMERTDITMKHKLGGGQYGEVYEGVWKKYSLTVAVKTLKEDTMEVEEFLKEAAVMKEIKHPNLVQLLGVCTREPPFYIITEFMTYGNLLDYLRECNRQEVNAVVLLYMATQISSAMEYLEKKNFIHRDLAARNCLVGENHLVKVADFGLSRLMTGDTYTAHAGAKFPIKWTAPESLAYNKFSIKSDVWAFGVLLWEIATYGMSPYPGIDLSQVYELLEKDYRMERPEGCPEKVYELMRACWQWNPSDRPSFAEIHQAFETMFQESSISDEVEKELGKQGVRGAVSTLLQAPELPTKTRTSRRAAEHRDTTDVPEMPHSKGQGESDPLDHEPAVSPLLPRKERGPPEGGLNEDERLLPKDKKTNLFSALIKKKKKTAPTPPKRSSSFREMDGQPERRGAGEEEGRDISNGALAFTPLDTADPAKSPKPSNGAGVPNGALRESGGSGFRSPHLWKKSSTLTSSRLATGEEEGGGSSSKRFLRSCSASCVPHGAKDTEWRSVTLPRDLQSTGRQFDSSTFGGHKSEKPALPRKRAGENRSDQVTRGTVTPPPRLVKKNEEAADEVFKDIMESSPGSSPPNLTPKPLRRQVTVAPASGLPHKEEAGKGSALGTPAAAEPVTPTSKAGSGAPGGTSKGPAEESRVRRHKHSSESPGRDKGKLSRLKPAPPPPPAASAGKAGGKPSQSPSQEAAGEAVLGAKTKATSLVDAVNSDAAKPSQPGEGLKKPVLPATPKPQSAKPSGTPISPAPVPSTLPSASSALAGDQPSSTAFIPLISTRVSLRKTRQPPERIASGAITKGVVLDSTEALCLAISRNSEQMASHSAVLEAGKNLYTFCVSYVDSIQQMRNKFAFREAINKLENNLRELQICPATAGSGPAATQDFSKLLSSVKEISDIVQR
Protocol: as §1

Inhibition of Aurora B in profiling (in words; Aurora isoforms) [2]	Inhibition of Aurora A in profiling (in words; Aurora isoforms) [3]	Inhibition of JAK2 in profiling (in words) [4]	Inhibition of BRSK1 in profiling (in words) ([5]; 1 μM)	Inhibition of ABL in profiling (in words) [6]	Structure (SMILES)	Selectivity over the other kinases of the panel (in words) [1]	Aurora B activity, percentage of DMSO control [2] [percentage]	Aurora A activity, percentage of DMSO control ([3]; 0.1 or 1 μM inhibitor, mean of triplicate) [percentage]	JAK2 activity, percentage of DMSO control [4] [percentage]	BRSK1 activity, percentage of DMSO control [5] [percentage]	ABL activity, percentage of DMSO control [6] [percentage]
–	–	–	–	–	Cc1nc(Nc2cnn(C3CCNCC3)c2)nc2c1N(C)C(=O)c1cc3ccccc3cc1N2C [HTH-01-015]	did not markedly suppress	97	117	101	130	110
–	–	–	–	–	CCC(=O)Nc1cccc(Oc2nc(Nc3ccc(N4CCN(C)CC4)cc3OC)ncc2Cl)c1 [WZ4003]	did not significantly inhibit	72	–	65	91	104
inhibited	inhibited	inhibited	inhibited	inhibited	CN1C(=O)c2ccccc2N(C)c2nc(Nc3cnn(C4CCNCC4)c3)ncc21 [XMD-17-51]	less selective	–	–	–	–	–
inhibited	inhibited	inhibited	–	inhibited	CN1C(=O)c2cc3ccccc3cc2N(C)c2nc(Nc3cnn(C4CCNCC4)c3)ncc21 [XMD-18-42]	less selective	–	–	–	–	–
